The source of these data is US9157062B2, “Compositions and methods for promoting the generation of PDX1+ pancreatic cells” (President and Fellows of Harvard College, priority 2008, dated 2015).

The subject of series [1] is HUES8-derived population. Put plainly: Pancreatic lineage markers in ILV-treated population (immunocytochemistry, qRT-PCR). The series is classed as cell-based, human. The protocol:
(§1) Total RNAs were extracted with the RNeasy Mini Kit (Qiagen) and reverse-transcribed using SuperScript III RT-PCR system (Invitrogen) according to the manufacturer's protocol. One microliter of cDNA sample was PCR amplified with QuantiFast SYBR Green PCR Kit (Qiagen) and analyzed with DNA engine Opticon2 (MJ Research).
(§2) Cells were fixed with 10% formalin solution (Sigma) for 20 min at room temperature. Immunostaining was carried out with standard protocols. The following primary antibodies were used: goat anti-Pdx1 (1:500; R&D system); rabbit anti-FOXA2 (1:500; Upstate); rabbit anti-HNF6 (1:200; Santa Cruz Biotech); guinea pig anti-insulin (1:1000; Dako); rabbit anti-c-peptide (1:500; Linco); rabbit anti-amylase (1:200, Sigma); goat anti-HNF1β (1:100, Santa Cruz Biotech); and biotinylated DBA (1:400; Vector Lab). Alexa-488-, Alexa-555, and Alexa-647-conjugated donkey antibodies against mouse, rabbit, guinea pig and goat, and Pacific Blue conjugate-streptavidin (Invitrogen) were used at 1:300 dilution.
To further characterize the cells induced by ILV, beyond Pdx1^+ expression, multiple pancreatic lineage markers were examined by immunocytochemistry and qRT-PCR. More than 96% of the Pdx1^+ cells following ILV treatment show significant expression of other pancreatic progenitor markers, including FOXA2 and HNF6 (FIG. 4a). After ILV treatment, Pdx1, HNF6, Ptfla, Sox9, FOXA2 mRNAs level increase (FIG. 4b).
In general terms: Quantitative PCR measures a nucleic acid by following its amplification.

Series [2] has as its system HUES8-derived population. Briefly: In vitro differentiation into pancreatic lineages with bFGF and nicotinamide. It is filed as cell-based, human. The procedure: For growth factor-induced differentiation, the ILV-treated populations were cultured in DMEM/F12 supplemented with 1×N2 (Invitrogen), 2 mg/ml albumin fraction V (Invitrogen), and 10 ng/ml bFGF (Invitrogen) for the first 4 days. 10 mM nicotinamide (Sigma) was then added and maintained for additional 8 days, changing the media every 3 days.
as §2
In mouse embryonic development, Pdx1^+ pancreatic progenitors contribute to exocrine, endocrine and duct cells (Gu et al., 2003). The developmental potential of Pdx1^+ cells produced by ILV treatment was tested in two assays. First, following published protocols for in vitro differentiation (Jiang et al., 2007), cells were cultured with bFGF and nicotinamide for an additional 12 days. Using this in vitro differentiation assay, four different induced cell types were tested, including HUES8-derived population before ILV treatment (no treatment), the HUES8-derived population after 4 day treatment with DMSO, 300 nM ILV or 300 nM ILV+50 ng/ml FGF10, respectively. After 12 days culture with bFGF and nicotinamide, these four populations of cells were stained with the antibodies against insulin, c-peptide, amylase or DBA (a duct marker).

In series [3] the test system is HUES8-derived treated cells grafted under the kidney capsule. Briefly: Kidney capsule implantation of treated cells in CD1-nude mice. The series is classed as in vivo, mouse. The procedure:
After 4 days treatment with 300 nM ILV or 300 nM ILV+ 50 ng/ml FGF10, the cells were washed with DPBS for 3 times and treated with 1 mg/ml dispase for 5 min at 37° C. Then, the cells were lifted with the help of cell scraper, collected by centrifugation and resuspended in 50 μl DMEM supplemented 1×B27. About 40 μl (˜2×10^6 cells) of cell clumps were implanted into the left kidney of xylazine anesthetized CD1-nude mice. Two mice were prepared for each sample. Twelve weeks later, the left kidneys were dissected and fixed in 4% paraformaldehyde for 4 hours at 4° C. and processed by standard techniques to generate 15 micrometer cryosections for antibody staining. The antibodies were used as the same condition as immunocytochemistry. Fluorescent images were acquired on an inverted Zeiss LSM 510 confocal microscope.
To further assess the developmental competence of chemically-treated cells, the cells were transplanted under the kidney capsule of nude mice, an assay used by others to observe pancreatic differentiation in vivo (Korsgren et al., 1991; Movassat et al., 2002). […] Additionally, all insulin^+ cells express c-peptide. In contrast, no insulin^+ cells were detected in the mice injected with DMSO-treated population. […]

In series [4] the test system is mouse ESC-derived definitive endoderm with Pdx1-GFP reporter. Put plainly: Pancreatic differentiation of mESC-derived definitive endoderm (Pdx1-GFP reporter). It is filed as cell-based. The conditions noted are these: 300 nM ILV. The protocol: Mouse embryonic stem cells (mESCs) with Pdx1-GFP reporter are routinely cultured on irradiated CF-1 MEF feeder cells in KnockOut DMEM (Invitrogen) supplemented with 15% FBS (Hyclone), 2 mM L-Glu, 1.1 mM 2-mercaptoethanol, 1 mM nonessential amino acids, 1×PS and 10^3 unit LIF (Chemicon). Cells are passaged at the ratio of 1:12 every 3 days by using 0.25% trypsin-EDTA (Invitrogen).
To generate a definitive endoderm population, mESCs were plated on gelatin-coated surface at 2500 cell/cm^2 after depletion of MEF feeder cells. Then, the cells were treated with 1000 ng/ml recombinant mouse Nodal (R&D systems) in A-RPMI supplemented with 1×L-Glu, 1×L-PS and 0.2% FBS for 5 days. […]
as §1
To determine whether ILV functions on other species, the effect of ILV on a population of mouse ESCs (mESCs) that have been induced to form definitive endoderm was examined. […] The increase of Pdx1 expression can be further confirmed with immunostaining (FIG. 3b) and quantitative RT-PCR (qRT-PCR, FIG. 3c). […]

Setting [5] is: 4 day treatment (300 nM ILV, 50 ng/ml FGF10), then 12 days bFGF and nicotinamide.

As for (−)-Indolactam V [ILV], in the series on HUES8-derived population [1] (300 nM ILV, 4 days, qRT-PCR), the “Pdx1, HNF6, Ptfla, Sox9, FOXA2 mRNAs level” value is given as “increase”; the “endocrine progenitor markers Nkx2.2, Ngn3 and Nkx6.1” value is “upregulated”. For the same substance, the “share of Pdx1+ cells with significant expression of FOXA2 and HNF6” value in the series on HUES8-derived population [1] (after ILV treatment, immunocytochemistry) is recorded as “More than 96%”. Further, in the series with HUES8-derived population [2] (setting [5]), the “DBA+ duct cells” value is recorded as 3.6±1.3%, the “amylase+ exocrine cells” value came out at 22.7±5.3% and the “insulin+ cells” value amounted to 0.5±0.2%. The “contribution to somatostatin+ cells” value with HUES8-derived population [2] (compared to no treatment or DMSO, immunostaining and qRT-PCR) is on record as “stronger ability to contribute”. Also, the teratoma result in series [3] (after twelve weeks) is given as “no evidence for teratoma was detected”. Also, the “endocrine and exocrine markers in grafts” value in series [3] (cells treated 4 days, implanted in left kidney of CD1-nude mice, twelve weeks) is “contained cell clusters that expressed endocrine markers, including insulin and c-peptide, and an exocrine marker, amylase”. For the same substance, the “percentage of GFP+ cells” value in series [4] (6 days) is 50.0±6.1%. In addition, the “expression of mRNAs of pancreatic markers (Pdx1, Cdcp1, Ptfla, HNF6, FOXA2, Nkx2.2)” value in series [4] (qRT-PCR) was “increase”.
